From article PMC8507260, “A2E-induced inflammation and angiogenesis in RPE cells in vitro are modulated by PPAR-α, -β/δ, -γ, and RXR antagonists and by norbixin” (Aging (Albany NY), 2021)

Assays:
[1] = tested on: ERK; assay: ERK phosphorylation by western blot in primary porcine RPE cells; assay type: cell-based
Protocol: (§1) Pig eyes were obtained from a local slaughterhouse and transported to the laboratory in ice-cold Ringer solution. After removal of the anterior segment of the eye, the vitreous and neural retina was separated from the RPE and removed. The eyecup was washed twice with phosphate buffer saline (PBS), filled with trypsin (0.25% in PBS) and incubated at 37°C for 1.5 h. RPE cells were harvested by gently pipetting, centrifuged to remove trypsin and re-suspended in Dulbecco’s Modified Eagle Medium (DMEM) supplemented with 20% (v/v) foetal-calf serum (DMEM20%FCS) and 0.1% gentamycin. Cells were seeded into 60 mm diameter Petri dishes, cultured in an atmosphere of 5% CO2/95% air at 37°C, and supplied with fresh medium after 24 hours and 4 days in vitro. For experiments aimed at measuring mRNA or protein expression in RPE, cells were trypsinized after one week in culture and transferred to 24-well or 6-well plates at a density of 1.5 × 10^5 cells/cm^2 in DMEM2%FCS. […]
(§2) RPE samples were lysed in 20 mM Tris-HCl, 150 mM NaCl, 1 mM EDTA, 1% NP-40, pH 7.5 buffer containing a cocktail of protease and phosphatase inhibitors. […] The signal was developed using enhanced chemiluminescence reagents (ECL) prime detection kit, quantified by densitometry using Bio1D (Vilber Lourmat, Germany) and normalized by GAPDH levels. […]

[2] = biological target: T1, PPAR-γ (Homo sapiens, UniProt P37231); assay: Competition binding to PPAR-γ against [3H]rosiglitazone (Eurofins Cerep); parameters: Eurofins Cerep (contract laboratory that ran the assay); conditions: competition with [3H]rosiglitazone
T1 sequence (P37231 1-505): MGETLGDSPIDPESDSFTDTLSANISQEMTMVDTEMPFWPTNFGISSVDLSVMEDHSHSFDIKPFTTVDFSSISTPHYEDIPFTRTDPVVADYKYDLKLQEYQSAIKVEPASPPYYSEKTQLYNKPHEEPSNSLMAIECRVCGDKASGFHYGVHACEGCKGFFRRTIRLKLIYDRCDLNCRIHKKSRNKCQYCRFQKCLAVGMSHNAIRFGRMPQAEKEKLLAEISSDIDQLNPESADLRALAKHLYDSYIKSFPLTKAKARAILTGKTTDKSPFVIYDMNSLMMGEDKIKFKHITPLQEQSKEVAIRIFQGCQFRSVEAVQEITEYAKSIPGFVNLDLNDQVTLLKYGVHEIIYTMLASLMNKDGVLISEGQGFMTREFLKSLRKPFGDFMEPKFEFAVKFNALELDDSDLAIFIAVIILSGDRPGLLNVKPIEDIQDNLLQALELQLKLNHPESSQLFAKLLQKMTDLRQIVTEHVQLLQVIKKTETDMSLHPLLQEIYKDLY
Excerpt: The binding and activity of norbixin on PPARs remains controversial, thus, firstly, we performed competition experiments in vitro between norbixin and [^3H] GW7647, an agonist of PPAR-α, and [^3H] rosiglitazone, an agonist of PPAR-γ. […] Secondly, we tested whether norbixin could induce the transactivation of PPAR-α, -β/δ or -γ in the context of RPE cells in vitro by co-transfecting porcine RPE cells with a plasmid expressing each of the full-length PPAR isoforms and a plasmid expressing luciferase under the control of the PPAR response element. […] Then, we wanted to determine if norbixin could modulate the transactivation of PPAR isoforms induced by specific agonists.
(§3) Binding studies of A2E and norbixin to RXR-α and PPAR-α and γ were performed in vitro by an external laboratory (Eurofins Cerep, Celle L’Evescault, France) through competition experiments between A2E or norbixin and [^3H]9-cis-retinoic acid as the natural ligand of RXR-α, [^3H]GW7647 an agonist of PPAR-α and [^3H]Rosiglitazone an agonist of PPAR-γ.

[3] = tested on: AKT; assay: AKT phosphorylation by western blot in primary porcine RPE cells; assay type: cell-based
Protocol: as §1, §2

[4] = tested on: IL-8; assay: IL-8 mRNA expression by quantitative RT-PCR in porcine RPE cells; assay type: cell-based
Protocol: Pig eyes were obtained from a local slaughterhouse and transported to the laboratory in ice-cold Ringer solution. After removal of the anterior segment of the eye, the vitreous and neural retina was separated from the RPE and removed. The eyecup was washed twice with phosphate buffer saline (PBS), filled with trypsin (0.25% in PBS) and incubated at 37°C for 1.5 h. RPE cells were harvested by gently pipetting, centrifuged to remove trypsin and re-suspended in Dulbecco’s Modified Eagle Medium (DMEM) supplemented with 20% (v/v) foetal-calf serum (DMEM20%FCS) and 0.1% gentamycin. Cells were seeded into 60 mm diameter Petri dishes, cultured in an atmosphere of 5% CO2/95% air at 37°C, and supplied with fresh medium after 24 hours and 4 days in vitro. For experiments aimed at measuring mRNA or protein expression in RPE, cells were trypsinized after one week in culture and transferred to 24-well or 6-well plates at a density of 1.5 × 10^5 cells/cm^2 in DMEM2%FCS. Norbixin or agonists were added to the medium 24 h after seeding, and antagonists were added to the medium 24 h later. A2E treatment was performed during 19 h before cellular sample preparation. All the drugs used in these experiments were prepared as stock solutions in DMSO.
Total RNA was extracted using the NucleoSpin® RNA kit according to manufacturer’s instructions. RT of 500 ng of RNA was performed using the SuperScript III Reverse Transcriptase following the manufacturer’s instructions. Five ng of cDNA were amplified using the SYBR GREEN real-time PCR method. PCR primers for target genes and housekeeping gene GAPDH were designed using Primer3Plus Bioinformatic software (Table 2). The RT-PCR using the StepOne Plus (Life Technologies, Carlsbad, CA, USA) consisted of incubation at 50°C for 5 min followed by 40 cycles of 95°C for 15 s and of 60°C for 1 min. The reaction was completed by a melt curve stage at 95°C for 15 s, 60°C for 1 min, 95°C for 15 s and a final step at 60°C for 15 s. The relative mRNA expression was calculated using the comparative threshold method (Ct-method) with GAPDH for normalization. All experimental conditions were processed in triplicate and each experiment was done at least 3 times.

[5] = biological target: T2, RXR-α (Homo sapiens, UniProt P19793); assay: Competition binding to RXR-α against [3H]9-cis-retinoic acid (Eurofins Cerep); conditions: for IC50 / Kd: competition with [3H]9-cis-retinoic acid
T2 construct: Eurofins Cerep (contract laboratory that ran the assay)
T2 sequence (P19793 1-462): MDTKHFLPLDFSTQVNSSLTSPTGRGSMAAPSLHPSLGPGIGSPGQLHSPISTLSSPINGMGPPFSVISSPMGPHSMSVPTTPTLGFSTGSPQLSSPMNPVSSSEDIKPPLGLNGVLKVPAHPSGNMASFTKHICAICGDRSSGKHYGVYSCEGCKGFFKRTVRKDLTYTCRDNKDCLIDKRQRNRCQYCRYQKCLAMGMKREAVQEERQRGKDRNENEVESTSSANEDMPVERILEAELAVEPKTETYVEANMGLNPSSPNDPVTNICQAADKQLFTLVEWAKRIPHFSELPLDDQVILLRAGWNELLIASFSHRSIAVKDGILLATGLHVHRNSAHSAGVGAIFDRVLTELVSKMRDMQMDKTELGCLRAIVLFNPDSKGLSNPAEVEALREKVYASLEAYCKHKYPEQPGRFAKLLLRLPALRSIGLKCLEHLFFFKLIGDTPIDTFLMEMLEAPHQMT
Protocol: To confirm this hypothesis, we tested by competition experiments whether A2E and norbixin could bind to RXR-α. […] In similar transactivation experiments, we tested the activity of norbixin alone or added to A2E on RXR transactivation.
as §3

Structure (SMILES)	effect on ERK phosphorylation induced by A2E ([1]; NBX 20 μM + A2E 30 μM)	IC50 [2]	Kd [2]	effect on the increase of AKT phosphorylation induced by A2E ([3]; NBX 20 μM + A2E 30 μM)	inhibition of IL-8 mRNA expression induced by A2E ([4]; NBX 20 μM + A2E 30 μM)	IC50 [5]	Kd [5]	effect of the compound alone on ERK phosphorylation ([1]; A2E 30 μM vs DMSO control)	effect of the compound alone on AKT phosphorylation ([3]; A2E 30 μM vs DMSO control)	effect of the compound alone on IL-8 mRNA expression ([4]; vs DMSO control)	binding affinity of A2E for RXR-α relative to norbixin (higher) ([5]; ratio of KDs)
CC(/C=C/C=C(C)/C=C/C(=O)O)=C\C=C\C=C(C)\C=C\C=C(C)\C=C\C(=O)O (stereo in doubt) [norbixin, 9’-cis-norbixin]	not significantly inhibited	1.9 µM	1 µM	abrogated completely	approximately 23 fold	65 µM	46 µM	–	–	–	–
CC(C=CC1=C(C)CCCC1(C)C)=CC=CC(C)=Cc1cc(C=CC=C(C)C=CC2=C(C)CCCC2(C)C)cc[n+]1CCO [A2E, N-retinylidene-N-retinylethanolamine]	–	25.5 µM	14 µM	–	–	6.1 µM	4.3 µM	induced the phosphorylation	induced the phosphorylation	induces the expression	10 fold
